# Tests used:
# [1] = system: aryl hydrocarbon receptor (AHR) signaling; assay: Cypla1 mRNA (AHR signaling) in ileum of mice with experimental NEC, qPCR; type: in vivo, mouse; conditions: 4 days, vs vehicle
# Experimental: (§1) Necrotizing enterocolitis (NEC) was induced in 7-day-old mouse pups by gavage feeding and hypoxia exposure for 4 days in presence of abacavir, lansoprazole, tranilast and raberprazole. The ileum was harvested at the end of the experiment and the mRNA expression of target genes was analyzed by qPCR.
# Referring now to FIG. 1, the mRNA expression of Cypla1, the down-stream gene of aryl hydrocarbon receptor (AHR) signaling, was quantified in the ileum of experimental NEC models. Data are represented as mean±SEM; *p<0.05 between indicated groups; each dot represents an individual mouse.
# mice with NEC = assay: mRNA of proinflammatory cytokines and NEC markers in ileum of mice with experimental NEC, qPCR; type: in vivo, mouse; conditions: vs vehicle-treated group
# Experimental: as §1
# Referring now to FIG. 2, the mRNA expression of pro-inflammatory cytokine tumor necrosis factor alpha (Tnf) was quantified in the ileum of experimental NEC models. Data are represented as mean±SEM; *p<0.05 between indicated groups; each dot represents an individual mouse.
# Referring now to FIG. 3, the mRNA expression of pro-inflammatory Interleukin-6 (IL-6) was quantified in the ileum of experimental NEC models. Data are represented as mean±SEM; *p<0.05 between indicated groups; each dot represents an individual mouse.
# Referring now to FIG. 4, the mRNA expression of NEC marker S100 calcium binding protein A8 (S100a8) was quantified in the ileum of experimental NEC models. Data are represented as mean±SEM; *p<0.05 between indicated groups; each dot represents an individual mouse.
# Referring now to FIG. 5, the mRNA expression of NEC marker lipocalin 2 (Lcn2) was quantified in the ileum of experimental NEC models. Data are represented as mean±SEM; *p<0.05 between indicated groups; each dot represents an individual mouse.
# Referring now to FIG. 6, the mRNA expression of NEC marker intestinal fatty acid-binding protein (iFabp) was quantified in the ileum of experimental NEC models. Data are represented as mean±SEM; *p<0.05 between indicated groups; each dot represents an individual mouse.
SMILES,"mRNA expression of Cypla1, the down-stream gene of AHR signaling [1]",mRNA expression of Interleukin-6 (IL-6) (mice with NEC),mRNA expression of NEC marker S100a8 (mice with NEC),mRNA expression of NEC marker lipocalin 2 (Lcn2) (mice with NEC),mRNA expression of tumor necrosis factor alpha (Tnf) (mice with NEC),mRNA expression of NEC marker iFabp (mice with NEC)
Nc1nc(NC2CC2)c2ncn([C@H]3C=C[C@@H](CO)C3)c2n1 [abacavir],activated AHR signaling pathway,significantly attenuated IL-6 expression,significantly attenuated S100a8 expression,significantly attenuated Lcn2 expression,significantly attenuated Tnf expression,–
Cc1c(OCC(F)(F)F)ccnc1C[S+]([O-])c1nc2ccccc2[nH]1 (centres unmarked) [lansoprazole],activated AHR signaling pathway,significantly attenuated IL-6 expression,significantly attenuated S100a8 expression,significantly attenuated Lcn2 expression,significantly attenuated Tnf expression,significantly attenuated iFabp expression
COCCCOc1ccnc(C[S+]([O-])c2nc3ccccc3[nH]2)c1C (centres unmarked) [raberprazole],"nor raberprazole, activated AHR signaling pathway",–,significantly attenuated S100a8 expression,–,–,significantly attenuated iFabp expression

# — patent publication US11458141B2, “Aryl hydrocarbon receptor (AhR) agonists for the prevention and treatment of inflammatory disorders” (The Johns Hopkins University, priority 2017, dated 2022)
